Usually inhibition stands for the share of the control response that was lost under treatment. Low readings indicate a weak effect, high ones a strong effect.

Assay [1] addresses T1, human muscarinic acetylcholine M3 receptor (M3-ACh) (Homo sapiens, UniProt P20309).
T1 construct: expressed in transfected cells; host or cells: CHO-K1 (Chinese Hamster Ovary) cell membranes
The experiment in a line: Muscarinic 3 Receptor Binding Assay, % inhibition specific binding at 1 μM. The following applies: 1 μM compound, % inhibition specific [3H]-NMS binding. The method, boiled down: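 Value is % inhibition of specific [3H]N-methyl scopolamine binding (0.1 nM, quarter Kd) by 1 μM compound, using SPA beads precoated with human M3-expressing CHO-K1 membranes. Buffer HEPES pH 7.4 with MgCl2 and 1% DMSO; 16 h at room temperature; 1 μM atropine sets non-specific binding.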

Assay [2] concerns the target T2, Adrenergic β2 (H292 cells) (Homo sapiens, UniProt P07550).
T2 construct: endogenous in cells; host or cells: H292 cells
Description: Adrenergic β2 Mediated cAMP Production, single concentration 1 μM. In kind it is cell-based. The following applies: NCI-H292, 1 μM compound, percentage of the maximum response generated by 1E-07M formoterol, read-out: β2 (% effect at 1 μM). The method, boiled down:
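cAMP was quantified by AlphaScreen in lysates of H292 cells and reported as a percentage of the 1E-07M formoterol maximum. Before lysis the cells, seeded the previous day, received rolipram (300 μM final) and then test compound at a final 1 μM in 1% DMSO for 60 min at room temperature.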

The target of assay [3] is T2, Adrenergic β2 (H292 cells). Description: Assay for Adrenergic β2 Mediated cAMP Production (concentration response, AlphaScreen cAMP detection). Format: cell-based. The conditions noted are these: for EC50: cAMP production, 60 minutes at room temperature, 300 μM rolipram, read-out: β2 pEC50 (converted); for β2 Intrinsic activity: fraction relative to the maximum activity determined for formoterol. The method, boiled down:
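Intrinsic activity is relative to the per-experiment formoterol maximum, with pEC50 from a four-parameter logistic fit of cAMP levels quantified by AlphaScreen against standards. Cells (H292) got 300 μM rolipram for 10 min, then compound for 60 min at room temperature, 1% DMSO final.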

In assay [4] the target is T1, human muscarinic acetylcholine M3 receptor (M3-ACh). The experiment in a line: Muscarinic 3 Receptor Binding Assay ([3H]NMS competition, SPA). The following applies: [3H]NMS 0.1 nM, CHO-K1 cell membranes, 16 hours at room temperature; read-out: M3 pIC50 (converted). The method, boiled down: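 Competition SPA binding of 0.1 nM [3H]NMS (quarter Kd) to membranes from CHO-K1 cells expressing human M3, in 20 mM HEPES pH 7.4, 5 mM MgCl2, 1% DMSO. Incubated 16 h at room temperature; non-specific binding with 1 µM atropine. pIC50 from 50% reduction of specific binding.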

T1 sequence (P20309 whole entry): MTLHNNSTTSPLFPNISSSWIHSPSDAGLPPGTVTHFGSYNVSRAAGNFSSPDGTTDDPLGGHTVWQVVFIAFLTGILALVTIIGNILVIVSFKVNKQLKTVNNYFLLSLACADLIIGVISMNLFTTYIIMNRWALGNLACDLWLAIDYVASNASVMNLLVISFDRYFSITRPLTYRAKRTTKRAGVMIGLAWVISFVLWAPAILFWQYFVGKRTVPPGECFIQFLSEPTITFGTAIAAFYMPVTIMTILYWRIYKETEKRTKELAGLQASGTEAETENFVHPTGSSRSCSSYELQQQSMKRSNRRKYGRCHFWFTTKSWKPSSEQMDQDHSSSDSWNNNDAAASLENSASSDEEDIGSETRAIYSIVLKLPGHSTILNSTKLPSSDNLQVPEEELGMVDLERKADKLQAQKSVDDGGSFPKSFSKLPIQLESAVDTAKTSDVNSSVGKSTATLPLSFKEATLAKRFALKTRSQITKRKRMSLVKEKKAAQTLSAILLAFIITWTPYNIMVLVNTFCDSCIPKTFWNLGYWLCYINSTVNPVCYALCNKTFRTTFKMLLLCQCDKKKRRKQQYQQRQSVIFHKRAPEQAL
T2 sequence (P07550 whole entry): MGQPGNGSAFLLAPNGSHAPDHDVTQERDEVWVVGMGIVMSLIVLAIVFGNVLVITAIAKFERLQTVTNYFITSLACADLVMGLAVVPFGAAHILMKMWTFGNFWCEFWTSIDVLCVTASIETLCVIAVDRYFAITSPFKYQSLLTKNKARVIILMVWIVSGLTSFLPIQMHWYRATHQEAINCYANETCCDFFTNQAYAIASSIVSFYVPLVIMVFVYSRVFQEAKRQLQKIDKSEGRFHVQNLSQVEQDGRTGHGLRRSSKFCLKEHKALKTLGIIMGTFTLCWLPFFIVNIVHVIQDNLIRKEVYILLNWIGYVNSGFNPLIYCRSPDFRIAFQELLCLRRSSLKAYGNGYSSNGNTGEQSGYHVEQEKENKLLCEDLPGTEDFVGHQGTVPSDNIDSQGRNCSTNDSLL

In the case of `O=C(c1csc(C(F)(F)F)n1)N1CCOC2(CCN(CCCCCCCCCNC[C@H](O)c3ccc(O)c4[nH]c(=O)sc34)CC2)C1` [Example 217, (R)-4-hydroxy-7-(1-hydroxy-2-(9-(4-(2-(trifluoromethyl)thiazole-4-carbonyl)-1-oxa-4,9-diazaspiro[5.5]undecan-9-yl)nonylamino)ethyl)benzo[d]thiazol-2(3H)-one], in assay [1], 1 µM produced 100% inhibition. In assay [2], the activation at 1 µM was 103%. Moreover, in assay [3], the EC50 was 39.8 nM and the “β2 Intrinsic activity” value is given as 0.9. Also, the IC50 in assay [4] is 0.631 nM.
In turn, `O=C(c1csc(C2CC2)n1)N1CCOC2(CCN(CCCCCCCCCNC[C@H](O)c3ccc(O)c4[nH]c(=O)sc34)CC2)C1` [Example 218, (R)-7-(2-(9-(4-(2-cyclopropylthiazole-4-carbonyl)-1-oxa-4,9-diazaspiro[5.5]undecan-9-yl)nonylamino)-1-hydroxyethyl)-4-hydroxybenzo[d]thiazol-2(3H)-one] came in with an inhibition at 1 µM in assay [1] of 100%. The activation at 1 µM in assay [2] came out at 95%. In assay [3], the EC50 was 25.1 nM and the “β2 Intrinsic activity” value came to 0.9. Also, the IC50 in assay [4] was 0.398 nM.
`CCCc1nc(C(=O)N2CCOC3(CCN(CCCCCCCCCNC[C@H](O)c4ccc(O)c5[nH]c(=O)sc45)CC3)C2)cs1` [Example 219, (R)-4-hydroxy-7-(1-hydroxy-2-(9-(4-(2-propylthiazole-4-carbonyl)-1-oxa-4,9-diazaspiro[5.5]undecan-9-yl)nonylamino)ethyl)benzo[d]thiazol-2(3H)-one] showed an inhibition at 1 µM in assay [1] of 99%. Also, the activation at 1 µM in assay [2] was 92%. In addition, in assay [3], the EC50 is 50.1 nM and the “β2 Intrinsic activity” value came to 0.8. Moreover, the IC50 in assay [4] is 1 nM.
Turning to `O=C(c1csc(C2CCC2)n1)N1CCOC2(CCN(CCCCCCCCCNC[C@H](O)c3ccc(O)c4[nH]c(=O)sc34)CC2)C1` [Example 220, (R)-7-(2-(9-(4-(2-cyclobutylthiazole-4-carbonyl)-1-oxa-4,9-diazaspiro[5.5]undecan-9-yl)nonylamino)-1-hydroxyethyl)-4-hydroxybenzo[d]thiazol-2(3H)-one], testing at 1 µM in assay [1] gave an inhibition of 100%. The activation at 1 µM in assay [2] came out at 109%. In addition, in assay [3], the EC50 was 25.1 nM and the “β2 Intrinsic activity” value came to 0.8. In assay [4], the IC50 was 0.631 nM.
In assay [1], `O=C(c1csc(C2CCCC2)n1)N1CCOC2(CCN(CCCCCCCCCNC[C@H](O)c3ccc(O)c4[nH]c(=O)sc34)CC2)C1` [Example 221, (R)-7-(2-(9-(4-(2-cyclopentylthiazole-4-carbonyl)-1-oxa-4,9-diazaspiro[5.5]undecan-9-yl)nonylamino)-1-hydroxyethyl)-4-hydroxybenzo[d]thiazol-2(3H)-one] displayed an inhibition at 1 µM of 99%. For the same compound, the activation at 1 µM in assay [2] stood at 93%. In assay [3], the EC50 was 31.6 nM and the “β2 Intrinsic activity” value is recorded as 0.9. In assay [4], the IC50 is 1.26 nM.
Take `O=C(c1csc(C2CC2)n1)N1CCOC2(CCN(CCOc3ccc(CNC[C@H](O)c4ccc(O)c5[nH]c(=O)sc45)cc3)CC2)C1` [Example 259, (R)-7-(2-(4-(2-(4-(2-cyclopropylthiazole-4-carbonyl)-1-oxa-4,9-diazaspiro[5.5]undecan-9-yl)ethoxy)benzylamino)-1-hydroxyethyl)-4-hydroxy-benzo[d]thiazol-2(3H)-one]: 1 µM produced 99% inhibition in assay [1]. For the same compound, in assay [2], the activation at 1 µM was 68%. Also, in assay [3], the EC50 is 200 nM and the “β2 Intrinsic activity” value worked out at 0.9. The IC50 in assay [4] is 5.01 nM.

(Values after patent publication US8148373B2, “Compounds” (AstraZeneca AB, priority 2008, dated 2012).)
